Source: US4898876A, “Benzoylpiperazine esters and a process for their production” (Kowa Co., Ltd., priority 1982, dated 1990)
Where a name gives a salt, the structure may show the parent alone.

Target: chymotrypsin (Bos taurus, UniProt P00766)
Assay: Chymotrypsin inhibitive activity (method of Muramatsu et al., acetyl-L-tyrosine ethyl ester substrate, Hestrin Method)
Assay type: biochemical
Conditions: pH 8.0 tris-hydrochloric acid buffer, 10 minutes preincubation, 30° C., 30 minutes, absorbance at 530 nm, read-out: Chymotrypsin inhibitive activity [50% inhibition concentration (M)]
Procedure: A solution prepared by mixing 0.1 ml of a dimethylsulfoxide solution containing a compound to be tested, 0.1 ml of water and 0.1 ml of a buffer solution containing 10 ug/ml of chymotrypsin (0.1M tris-hydrochloric acid buffer solution, pH 8.0) was incubated for 10 minutes by the method of Muramatsu et al. [see The Journal of Biochemistry, 62, 408 (1967)]. 0.2 ml of a buffer solution containing 25 mM of an acetyl-L-tyrosine ethyl ester was mixed with the above-prepared solution and reacted at 30° C. for 30 minutes. The amount of the remaining substrate was determined by causing the same to develop color by the Hestrin Method and measuring the absorbance at 530 nm. For comparative purposes, use was made of tosylphenylalanine chloromethyl ketone which was known as a chymotrypsin inhibitor (Comparative Compound I).

Row | SMILES | IC50 [M]
1 | CC(C)N1CCN(C(=O)c2ccc(OC(=O)C=C3c4ccccc4-c4ccccc43)cc2)CC1 [Example 2, 1-Isopropyl-4-[4-(9-fluorenylideneacetyloxy)benzoyl]piperazine] | 1e-07
2 | CC(C)N1CCN(C(=O)c2ccc(OC(=O)CC3=CCCc4ccccc43)cc2)CC1 [Example 22] | 3e-06
3 | CC(C)N1CCN(C(=O)c2ccc(OC(=O)CC3c4ccccc4-c4ccccc43)cc2)CC1 [Example 40] | 1e-06
4 | CC(C)N1CCN(C(=O)c2ccc(OC(=O)C3C=CCc4cc(Cl)ccc43)cc2)CC1 (stereo not shown) [Example 21] | 9e-06
5 | CC(C)N1CCN(C(=O)c2ccc(OC(=O)C3=Cc4ccccc4CC3)cc2)CC1 [Example 20] | 5e-06
6 | CC1CCC(C(=O)Oc2ccc(C(=O)N3CCN(C(C)C)CC3)cc2)c2ccccc21 (stereo not shown) [Example 15] | 8e-07
7 | CC(C)N1CCN(C(=O)c2ccc(OC(=O)COc3ccc4ccccc4c3)cc2)CC1 [Example 30] | 9e-06
8 | CC(C)N1CCN(C(=O)c2ccc(OC(=O)Cc3cc4ccccc4s3)cc2)CC1 [Example 3] | 9e-07
9 | CC(C)N1CCN(C(=O)c2ccc(OC(=O)CCc3ccc4ccccc4c3)cc2)CC1 [Example 32] | 7e-06
10 | O=C(Oc1ccc(C(=O)N2CCN(C3CCCCC3)CC2)cc1)C1CCCc2ccccc21 (stereo not shown) [Example 66] | 9e-07
11 | CC(C)N1CCN(C(=O)c2ccc(OC(=O)Cc3cccc4c3CCCC4)cc2)CC1 [Example 1, 1-Isopropyl-4-[4-(5,6,7,8-tetraphydronaphthalene-1-acetyloxy)benzoyl]piperazine.hydrochloride] | 3e-06
12 | COc1ccc2c(c1)C(CC(=O)Oc1ccc(C(=O)N3CCN(C(C)C)CC3)cc1)=CC2 [Example 9] | 1e-06
13 | CC(C)N1CCN(C(=O)c2ccc(OC(=O)Cc3cccc4ccccc34)cc2)CC1 [Example 24] | 5e-07

Second part, the molecule after the results:

Row | IC50 [M] | SMILES
14 | 8e-07 | COc1ccc2c(c1)C(C(=O)Oc1ccc(C(=O)N3CCN(C)CC3)cc1)CCC2 (stereo not shown) [Example 65, 1-Methyl-4-[4-(7-methoxyl-1,2,3,4-tetrahydro-1-naphtoyloxy)benzoyl]piperazine.methanesulfonate]
15 | 9e-07 | CCN1CCN(C(=O)c2ccc(OC(=O)C3CCCc4ccccc43)cc2)CC1 (stereo not shown) [Example 68]
16 | 5e-06 | CC(C)N1CCN(C(=O)c2ccc(OC(=O)C3CCc4ccccc43)cc2)CC1 (stereo not shown) [Example 4]
17 | 8e-07 | CC(C)N1CCN(C(=O)c2ccc(OC(=O)C3CCCc4cc(Cl)ccc43)cc2)CC1 (stereo not shown) [Example 17]
18 | 6e-07 | Cc1ccc2c(c1)CCCC2C(=O)Oc1ccc(C(=O)N2CCN(C(C)C)CC2)cc1 (stereo not shown) [Example 18]
19 | 8e-07 | CC(C)N1CCN(C(=O)c2ccc(OC(=O)C3CCCc4ccccc43)cc2)CC1 (stereo not shown) [Example 67]
